# Source: patent US11708366B2, “Heteroaryl substituted spiropiperidinyl derivatives and pharmaceutical uses thereof” (Novartis AG, priority 2020, dated 2023)
# Biological target: LTC4S (Homo sapiens (Human), UniProt Q16873)
# Assay: Human whole blood HTRF assay (LTC4 release after calcium ionophore A23187)
# Type: cell-based
# Conditions: human whole blood diluted 1:3, 4 h incubation, calcium ionophore A23187 stimulation, LTC4 by HTRF; read-out: human whole blood HTRF IC50
# Description: B. Human Whole Blood HTRF Assay
# LTC4 synthase catalyzes the conversion of Leukotriene A4 (LTA4) to Leukotriene C4 (LTC4) in the presence of reduced glutathione (GSH) as a co-substrate. For testing the inhibition of LTC4S, compounds are prepared for either eight-point or sixteen-point dose response studies in 384-well Labcyte low dead volume (LDV) plates. For eight-point dose response studies, compounds are diluted 1:5 starting at 1 μM concentration in 90% DMSO. […] Compounds are studied in duplicates. Ten wells are filled with 90% DMSO which correspond to the stimulated and unstimulated control wells. […] The morning of the assay, whole blood is collected from three human donors. Donors must be non-smokers and must not have taken NSAIDs within the 48 hours prior to blood collection. The amount of blood collected per donor depends on the amount of compounds to be tested and the dose response format in which they are to be studied (about 8 mL of whole blood for either 22 compounds in 8-point dose response format or 11 compounds in 16-point dose response format). […] 50 μL of diluted blood are then dispensed into each assay plate well with pre-dispensed compounds and DMSO for the stimulated and unstimulated controls using a Thermo Scientific™ Multidrop™ Combi reagent dispenser, and incubated at 37° C. for 4 hours. Calcium ionophore A23187 is used to induce a rapid increase in intracellular levels of Ca^2+. The Ca^2+ functions as a universal second messenger in various immune cells, such as T cells, B cells and mast cells, and is used to induce degranulation and release of eicosanoids, including LTC4, by cells contained in the whole blood samples. […] All but the unstimulated control wells are subsequently stimulated by dispensing 1 μL of the 0.5 mg/mL calcium ionophore suspension using the Thermo Scientific™ Multidrop™ Combi reagent dispenser. Plates are incubated for 15 minutes at 37° C. Plates are then centrifuged at 300 g for 10 minutes at room temperature to pellet blood cells and stop the reaction. […] Plates are sealed and stored at −80° C.
# In order to measure the amount of LTC4 released by cells in the human blood samples during calcium ionophore stimulation, supernatants are analyzed using the Cisbio LTC4 homogeneous time-resolved FRET (HTRF) kit (Cisbio #64LC4PEH). […] Ten serially diluted standard curve solutions are also dispensed in duplicate into each plate as instructed in the protocol. Blank controls and cryptate control wells are also prepared. Then, 5 μL of anti-LTC4-d2 working solution are dispensed into all the wells, but the cryptate control wells. Subsequently, 5 μL of anti-LTC4-Eu3+ cryptate working solution are dispensed into all the wells. Plates are then covered with a lid and incubated at room temperature for one hour with gentle orbital shaking (˜450 rpm). […] HTRF ratios are calculated for each well by dividing the 665 nm intensity by the 620 nm intensity, and multiplying the resulting ratio by 10,000. LTC4 standard curves are interpolated for each plate and used to convert the HTRF ratio readouts into the amount of LTC4 present in each well (in ng/mL). Parametric curve fitting is used to obtain inhibition curves and IC50 values.
row,Compound,IC50
1,"Nc1nc(OC2COCC2(F)F)cc(N2CCC3(CCCC(=O)N3c3ccc(F)c(F)c3)CC2)n1 (racemic) [Example 98, rac-9-(2-amino-6-((4,4-difluorotetrahydrofuran-3-yl)oxy)pyrimidin-4-yl)-1-(3,4-difluorophenyl)-1,9-diazaspiro[5.5]undecan-2-one]",3 nM
2,"Cn1cc(C2=CCC(F)(F)CC2)nc(N2CCC3(CCCC(=O)N3c3ccc(F)c(F)c3)CC2)c1=O [Example 19, 9-(6-(4,4-difluorocyclohex-1-en-1-yl)-4-methyl-3-oxo-3,4-dihydropyrazin-2-yl)-1-(3,4-difluorophenyl)-1,9-diazaspiro[5.5]undecane-2-one]",3 nM
3,"O=C1CCCC2(CCN(c3nc(Cl)cc(O[C@@H]4CCOC4)n3)CC2)N1c1ccc(F)c(F)c1 [Example 72, (R)-9-(4-chloro-6-((tetrahydrofuran-3-yl)oxy)pyrimidin-2-yl)-1-(3,4-difluorophenyl)-1,9-diazaspiro[5.5]undecan-2-one]",760 nM
4,"O=C1CCCC2(CCN(c3cc(OC4CCOCC4)nc(CO)n3)CC2)N1c1ccc(F)c(F)c1 [Example 106, 1-(3,4-difluorophenyl)-9-(2-(hydroxymethyl)-6-((tetrahydro-2H-pyran-4-yl)oxy)pyrimidin-4-yl)-1,9-diazaspiro[5.5]undecan-2-one]",69 nM
5,"Nc1nc(O[C@H]2CCOC[C@@H]2F)cc(N2CCC3(CCCC(=O)N3c3ccc(F)c(F)c3)CC2)n1 (racemic) [Example 99, rac-9-(2-amino-6-(((3S,4S)-3-fluorotetrahydro-2H-pyran-4-yl)oxy)pyrimidin-4-yl)-1-(3,4-difluorophenyl)-1,9-diazaspiro[5.5]undecan-2-one]",4 nM
6,"COc1nc(N2CCC3(CCCC(=O)N3c3ccc(F)c(F)c3)CC2)cc(-n2cccn2)n1 [Example 50, 1-(3,4-difluorophenyl)-9-(2-methoxy-6-(1H-pyrazol-1-yl)pyrimidin-4-yl)-1,9-diazaspiro[5.5]undecan-2-one]",45 nM
7,"O=C1CCCC2(CCN(c3cc(N4CCCOCC4)ncn3)CC2)N1c1ccc(F)c(F)c1 [Example 45, 9-(6-(1,4-oxazepan-4-yl)pyrimidin-4-yl)-1-(3,4-difluorophenyl)-1,9-diazaspiro[5.5]undecan-2-one]",620 nM
8,"O=C1CCCC2(CCN(c3cc(-n4cc(C(F)(F)F)cn4)nc(Cl)n3)CC2)N1c1ccc(F)c(F)c1 [Example 69, 9-(2-chloro-6-(4-(trifluoromethyl)-1H-pyrazol-1-yl)pyrimidin-4-yl)-1-(3,4-difluorophenyl)-1,9-diazaspiro[5.5]undecan-2-one]",35 nM
9,"O=C1CCCC2(CCN(c3cc(O[C@@H]4CCOC[C@@H]4F)nc(CO)n3)CC2)N1c1ccc(F)c(F)c1 (racemic) [Example 107, rac-1-(3,4-difluorophenyl)-9-(6-(((3S,4R)-3-fluorotetrahydro-2H-pyran-4-yl)oxy)-2-(hydroxymethyl)pyrimidin-4-yl)-1,9-diazaspiro[5.5]undecan-2-one]",6 nM
10,"O=C1CCCC2(CCN(c3cc(-n4cc(C(F)(F)F)cn4)nc(CO)n3)CC2)N1c1ccc(F)c(F)c1 (racemic) [Example 67, rac-1-(3,4-difluorophenyl)-9-(2-(1-hydroxymethyl)-6-(4-(trifluoromethyl)-1H-pyrazol-1-yl)pyrimidin-4-yl)1,9-diazaspiro[5.5]undecane-2-one]",2 nM
11,NC(=O)c1nc(N2CCC3(CCCC(=O)N3c3ccc(F)c(F)c3)CC2)cc(-n2cc(C(F)(F)F)cn2)n1 [Example 68],120 nM
12,"O=C1CCCC2(CCN(c3nc(C4=CCC(F)(F)CC4)c[nH]c3=O)CC2)N1c1ccc(F)c(F)c1 [Example 18, 9-(6-(4,4-difluorocyclohex-1-en-1-yl)-3-oxo-3,4-dihydropyrazin-2-yl)-1-(3,4-difluorophenyl)-1,9-diazaspiro[5.5]undecane-2-one]",2 nM
